≈ marks a conversion by molar mass, not a printed value. Like-named read-outs stand apart in the source and are kept apart here.
Assays:
[1] = system: four Gram-positive and four Gram-negative strains; test: Antibacterial activity; format: cell-based
[2] = system: Candida albicans ATCC 44859; test: Antifungal microdilution broth method, C. albicans; format: cell-based
Procedure, shortened: (§1)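 Panel covers five yeasts and three filamentous fungi tested by a slightly modified EUCAST microdilution protocol. Growth medium is glucose-supplemented (2%) RPMI-1640 with L-glutamine at pH 7.0 (MOPS). Endpoints are judged visually from duplicate runs.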

HepG2 cells = test: Cytotoxicity, CellTiter 96 assay; format: cell-based, human; conditions: Homo sapiens, HepG2, 24 h, 24 h incubation
Protocol: HepG2, human hepatocellular carcinoma cells (ATCC HB-8065; passage 5–8) purchased from Health Protection Agency Culture Collections (ECACC, Salisbury, UK) were cultured in Minimum Essentials Eagle Medium supplemented with 10% fetal bovine serum, 1% L-glutamine solution and non-essential amino acid solution (Sigma-Aldrich, St. Louis, MO, USA) in a humidified atmosphere containing 5% CO2 at 37 °C. For subculturing, the cells were harvested after trypsin/EDTA (Sigma-Aldrich, St. Louis, USA) treatment at 37 °C. To evaluate cytotoxicity, the cells treated with the tested substances were used as experimental groups whereas untreated HepG2 cells served as control groups.
The cells were seeded in a density of 10 000 cells per well in a 96-well plate. The following day the cells were treated with each of the tested substances dissolved in DMSO (maximal incubation concentration of DMSO was 1% v/v). The tested substances were prepared at different incubation concentrations in triplicates according to their solubility. Simultaneously, the controls representing 100% cell viability, 0% cell viability (the cells treated with 10% DMSO), no cell control and vehiculum controls were also involved in triplicates. After 24 h incubation in a humidified atmosphere containing 5% CO2 at 37 °C, the reagent from the kit CellTiter 96 AQueous One Solution Cell Proliferation Assay (CellTiter 96; Promega, Fitchburg, WI, USA) was added. After 2 h incubation at 37 °C absorbance of samples was recorded at 490 nm (TECAN, Infinita M200, Grödig, Austria). A standard toxicological parameter IC50 was calculated by nonlinear regression from a semilogarithmic plot of incubation concentration versus percentage of absorbance relative to untreated controls using GraphPad Prism software (version 6; GraphPad Software, Inc., La Jolla, CA, USA).
The CellTiter 96 assay used is based on the reduction of tetrazolium dye in living cells to formazan, which is then determined colorimetrically. This reduction is related to availability of NADH or NADPH. The decline in levels of these metabolically important compounds in the cell causes that the production of formazan is reduced. For quantitative comparison of cytotoxicity, the parameter IC50 was used.

Candida glabrata 20/I = test: Antifungal microdilution broth method, C. glabrata; format: cell-based; conditions: Nakaseomyces glabratus
Procedure, shortened: as §1

[3] = system: Staphylococcus aureus ATCC 29213, CCM 4223; test: Antibacterial microdilution broth method, S. aureus; format: cell-based
[4] = system: Pseudomonas aeruginosa ATCC 27853, CCM 3955; test: Antibacterial microdilution broth method, P. aeruginosa; format: cell-based; conditions: Pseudomonas aeruginosa
eight fungal strains = test: Antifungal activity; format: cell-based; conditions: statement over the fungal panel; time not stated
Procedure, shortened: as §1

[5] = system: Mtb. 331/88 and three non-tuberculous mycobacterial strains; test: Antimycobacterial activity; format: cell-based; conditions: statement over four mycobacterial strains, time not stated
[6] = time not stated, read-out: MIC, S. epidermidis (1e MRSA, too)
[7] = ATCC44859, 24 h, read-out: MIC CA 24 h
[8] = ATCC44859, 48 h, read-out: MIC CA 48 h
[9] = 24 h incubation, read-out: MIC SA 24 h
[10] = 48 h incubation, read-out: MIC SA 48 h
[11] = P. aeruginosa, 24 h incubation, read-out: MIC PA 24 h
[12] = P. aeruginosa, 48 h incubation, read-out: MIC PA 48 h

`O=C(O)c1ccc(N=Cc2cc(Cl)ccc2O)cc1` [1c, 4-[(5-Chloro-2-hydroxybenzylidene)amino]benzoic acid] showed an MIC [1, 6] of at least 62.5 µM, an MIC [2, 7] of over 125 µM and an MIC [2, 8] of over 125 µM. It also gave an IC50 (HepG2 cells) of 143 µM, an MIC (Candida glabrata 20/I; 24 h, read-out: MIC CG 24 h) of 125 µM (≈ 34.5 µg/mL) and an MIC (Candida glabrata 20/I; 48 h, read-out: MIC CG 48 h) of 125 µM (≈ 34.5 µg/mL). The MIC [3, 9] was over 500 µM, the MIC [3, 10] was over 500 µM and the MIC [4, 11] was over 500 µM. The MIC [4, 12] was over 500 µM.
`O=C(O)c1ccc(N=Cc2cc(Br)ccc2O)cc1` [1d, 4-[(5-Bromo-2-hydroxybenzylidene)amino]benzoic acid] showed an MIC [1, 6] of at least 62.5 µM, an MIC [2, 7] of 62.5 µM (≈ 20 µg/mL) and an MIC [2, 8] of 62.5 µM (≈ 20 µg/mL). It also gave an IC50 (HepG2 cells) of 179 µM, an MIC (Candida glabrata 20/I; 24 h, read-out: MIC CG 24 h) of 62.5 µM (≈ 20 µg/mL) and an MIC (Candida glabrata 20/I; 48 h, read-out: MIC CG 48 h) of 62.5 µM (≈ 20 µg/mL). The MIC [3, 9] was over 250 µM, the MIC [3, 10] was over 250 µM and the MIC [4, 11] was over 250 µM. For the same molecule, the MIC [4, 12] was over 250 µM.
`O=C(O)c1ccc(N=Cc2cc(I)ccc2O)cc1` [1e, 4-[(2-Hydroxy-5-iodobenzylidene)amino]benzoic acid] was tested, and the MIC [1, 6] was at least 62.5 µM, the MIC [2, 7] was 62.5 µM (≈ 22.9 µg/mL) and the MIC [2, 8] was 62.5 µM (≈ 22.9 µg/mL). The MIC (eight fungal strains) was at least 31.2 µM, the IC50 (HepG2 cells) was 113 µM and the MIC (Candida glabrata 20/I; 24 h, read-out: MIC CG 24 h) was 31.2 µM (≈ 11.5 µg/mL). For the same molecule, the MIC (Candida glabrata 20/I; 48 h, read-out: MIC CG 48 h) was 31.2 µM (≈ 11.5 µg/mL), the MIC [3, 9] was over 250 µM and the MIC [3, 10] was over 250 µM. For the same molecule, the MIC [4, 11] was over 250 µM and the MIC [4, 12] was over 250 µM.
In the case of `O=C(O)c1ccc(N=Cc2cc([N+](=O)[O-])ccc2O)cc1` [1f, 4-[(2-Hydroxy-5-nitrobenzylidene)amino]benzoic acid], the MIC ([1]; Staphylococcus aureus, MRSA, time not stated, read-out: MIC, multiple Gram-positive strains including MRSA) is reported as at least 250 µM, the MIC [2, 7] is reported as 500 µM (≈ 143 µg/mL) and the MIC [2, 8] is reported as 500 µM (≈ 143 µg/mL). For the same molecule, the MIC (eight fungal strains) was at least 250 µM, the IC50 (HepG2 cells) was 244 µM and the MIC (Candida glabrata 20/I; 24 h, read-out: MIC CG 24 h) was over 500 µM. For the same molecule, the MIC (Candida glabrata 20/I; 48 h, read-out: MIC CG 48 h) was over 500 µM, the MIC [3, 9] was 500 µM (≈ 143 µg/mL) and the MIC [3, 10] was 500 µM (≈ 143 µg/mL). The MIC [4, 11] was over 500 µM and the MIC [4, 12] was over 500 µM.
For `O=C(O)c1ccc(N=Cc2cc(Cl)cc(Cl)c2O)cc1` [1n, 4-[(3,5-Dichloro-2-hydroxybenzylidene)amino]benzoic acid], the MIC [2, 7] was 125 µM (≈ 38.8 µg/mL), the MIC [2, 8] was 125 µM (≈ 38.8 µg/mL) and the MIC (eight fungal strains) was at least 125 µM. For the same molecule, the IC50 (HepG2 cells) was 98.7 µM, the MIC (Candida glabrata 20/I; 24 h, read-out: MIC CG 24 h) was 125 µM (≈ 38.8 µg/mL) and the MIC (Candida glabrata 20/I; 48 h, read-out: MIC CG 48 h) was 125 µM (≈ 38.8 µg/mL). The MIC [3, 9] was 125 µM (≈ 38.8 µg/mL), the MIC [3, 10] was 125 µM (≈ 38.8 µg/mL) and the MIC [4, 11] was over 500 µM. For the same molecule, the MIC [4, 12] was over 500 µM.
`O=C(O)c1ccc(N=Cc2ccc([N+](=O)[O-])o2)cc1` [1r, 4-{[(5-Nitrofuran-2-yl)methylene]amino}benzoic acid] was tested, and the MIC ([1]; converted from 62.5–125 µM, read-out: MIC, staphylococci) was 16.2 to 32.5 µg/mL, the MIC ([1]; read-out: MIC, three staphylococcal strains) was 62.5 to 125 µM and the MIC [2, 7] was 250 µM (≈ 65.1 µg/mL). The MIC [2, 8] was 250 µM (≈ 65.1 µg/mL), the MIC ([5]; Mycobacterium tuberculosis) was 62.5 to 250 µM (≈ 16.3 to 65.1 µg/mL) and the IC50 (HepG2 cells) was 15 µM. For the same molecule, the MIC (Candida glabrata 20/I; 24 h, read-out: MIC CG 24 h) was 250 µM (≈ 65.1 µg/mL), the MIC (Candida glabrata 20/I; 48 h, read-out: MIC CG 48 h) was 250 µM (≈ 65.1 µg/mL) and the MIC [3, 9] was 62.5 µM (≈ 16.3 µg/mL). For the same molecule, the MIC [3, 10] was 62.5 µM (≈ 16.3 µg/mL), the MIC [4, 11] was 500 µM (≈ 130 µg/mL) and the MIC [4, 12] was 500 µM (≈ 130 µg/mL). The MIC ([4]; time not stated, read-out: MIC, P. aeruginosa) was 500 µM (≈ 130 µg/mL).
In the case of `O=C(O)c1ccc(NCc2ccccc2O)cc1` [1u, 4-[(2-Hydroxybenzyl)amino]benzoic acid], the “MIC, antibacterial activity” value ([1]; statement over the bacterial panel, time not stated) is reported as “avoided any antibacterial action”, the MIC [2, 7] is reported as over 500 µM and the MIC [2, 8] is reported as over 500 µM. The “MIC, antifungal activity” value (eight fungal strains) was “no antimycotic potency”, the “MIC, antimycobacterial activity” value [5] was “only negligible antimycobacterial activity” and the IC50 (HepG2 cells) was over 500 µM. For the same molecule, the MIC (Candida glabrata 20/I; 24 h, read-out: MIC CG 24 h) was over 500 µM, the MIC (Candida glabrata 20/I; 48 h, read-out: MIC CG 48 h) was over 500 µM and the MIC [3, 9] was over 500 µM. For the same molecule, the MIC [3, 10] was over 500 µM, the MIC [4, 11] was over 500 µM and the MIC [4, 12] was over 500 µM.
